Measurements: BigSolDB 2.1

COC1=CC(=O)C[C@@H](C)[C@]12Oc1c(Cl)c(OC)cc(OC)c1C2=O
Conditions	solubility (mole fraction)
in 1,2-dichloroethane, 290.05 K	0.0197
in 1,2-dichloroethane, 294.3 K	0.0209
in 1,2-dichloroethane, 300.25 K	0.0222
in 1,2-dichloroethane, 305.55 K	0.0236
in 1,2-dichloroethane, 310.05 K	0.0251
in 1,2-dichloroethane, 315.65 K	0.0268
in 1,2-dichloroethane, 319.35 K	0.0289
in 1,2-dichloroethane, 324.05 K	0.0311
in 1,2-dichloroethane, 329.65 K	0.0335
in 2-butanone, 289.65 K	0.00826
in 2-butanone, 296.95 K	0.00941
in 2-butanone, 302.95 K	0.0103
in 2-butanone, 308.25 K	0.0117
in 2-butanone, 315.05 K	0.0128
in 2-butanone, 320.4 K	0.0141
in 2-butanone, 325.45 K	0.0151
in 2-butanone, 330.35 K	0.0163
in DMAc, 296.2 K	0.0252
in DMAc, 301.25 K	0.0276
in DMAc, 305.75 K	0.0303
in DMAc, 310.75 K	0.0326
in DMAc, 314.95 K	0.0344
in DMAc, 319.25 K	0.0369
in DMAc, 324.75 K	0.0395
in DMAc, 330.05 K	0.0422
in DMAc, 336.15 K	0.0452
in DMAc, 340.25 K	0.0488
in DMAc, 345.75 K	0.0518
in DMAc, 350.55 K	0.0549
in DMAc, 354.78 K	0.0582
in DMSO, 296.75 K	0.0167
in DMSO, 301.15 K	0.0186
in DMSO, 306.15 K	0.0204
in DMSO, 310.85 K	0.0218
in DMSO, 315.55 K	0.0239
in DMSO, 320.55 K	0.026
in DMSO, 326.55 K	0.0282
in DMSO, 331.95 K	0.0302
in DMSO, 336.75 K	0.0324
in DMSO, 341.05 K	0.0345
in DMSO, 346.25 K	0.0368
in DMSO, 351.7 K	0.0393
in DMSO, 357.6 K	0.0415
in NMP, 295.55 K	0.0421
in NMP, 300.65 K	0.0451
in NMP, 305.75 K	0.048
in NMP, 310 K	0.0511
in NMP, 315.1 K	0.0541
in NMP, 320.6 K	0.057
in NMP, 325.45 K	0.0601
in NMP, 330.45 K	0.0631
in NMP, 335.55 K	0.0666
in NMP, 340.35 K	0.0704
in NMP, 345.55 K	0.0758
in NMP, 350.35 K	0.0795
in NMP, 355.65 K	0.083
in acetone, 281.95 K	0.00648
in acetone, 286.4 K	0.0071
in acetone, 291.85 K	0.00776
in acetone, 296.4 K	0.00853
in acetone, 300.8 K	0.00941
in acetone, 305.05 K	0.0102
in acetone, 310.25 K	0.0117
in acetone, 313.65 K	0.0129
in acetone, 317.05 K	0.0143
